Measured values: article PMC9337991 (2022)

Test system: tandem Na+ and c-di-AMP riboswitch (DUF1646_cdA_WT transcript) (RNA, riboswitch) AUUUAUAAGGUUACUUUCGGUUGGAAUGGUUAUUACCAUUUUCAAGAGAAGCGGGCUCUGGGGUGGGAGGCUACCAAAUAUUGGUAUAGCUAUCCACCUUUAUUUAUUUUUUUUAAGACAACAACUGAAUAUAUUUAUACGCUGAAUCCGUUAGGAACGGGAGACCCAAAUAAUAGGGGUGAAUCCAAAGCGGUUGCUUUGGUAGGGUUAAGCUCUUUCGACCCGAAUCCGUCAGCUAAUCUCGUAAGCGGUGGAAGAGAAGGUGAUUGAUAUGCUUAAUUACACCUUUAGUUAAGGUAUAUAUUUUAGCAUACGCUGCAGAUACUUCUCUGCAGCUUUUUGUUUUAUAUACCACAAAUGUUGAGGAUGACAAUCUUCAAUGAGAAUCUGAAGGAGGAAUUAAAUAAUAUGGGAUCCAAAGGA
Test: in vitro single-round transcription termination
Conditions: K+ 100 mM, Mg2+ 4 mM; 40 mM Tris-HCl pH 7.5, 37 °C; E. coli RNA polymerase; functional co-transcriptional response, no constant

Nc1ncnc2c1ncn2[C@@H]1O[C@@H]2COP(=O)(O)O[C@H]3[C@@H](O)[C@H](n4cnc5c(N)ncnc54)O[C@@H]3COP(=O)(O)O[C@H]2[C@H]1O
binding: yes
